In ChEMBL document CHEMBL1201862, “PubChem BioAssay data set” (2004):
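All cell lines were grown in 96-well plates and treated with compound for 48 hours. At the GI50, growth is halved.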 Calls of active or inactive are those of the source. No stated cut-off is given here; in the data, active = GI50 up to about 1.1 µM and inactive = higher.

How the values were obtained:
Assay in all cases: DTP human tumour cell line panel, 48 h
T47D = tested on: T47D
DMS-114 = tested on: DMS-114
CAKI-1 = tested on: CAKI-1
ACHN = tested on: ACHN
NCI-H23 = tested on: NCI-H23
SN12C = tested on: SN12C
SNB-19 = tested on: SNB-19
MOLT-4 = tested on: MOLT-4
A498 = tested on: A498
UACC-257 = tested on: UACC-257
UACC-62 = tested on: UACC-62
SNB-75 = tested on: SNB-75
OVCAR-3 = tested on: OVCAR-3
BT-549 = tested on: BT-549
CCRF-CEM = tested on: CCRF-CEM
M14 = tested on: M14
NCI/ADR-RES = tested on: NCI/ADR-RES
DU-145 = tested on: DU-145
SW-620 = tested on: SW-620
HCC 2998 = tested on: HCC 2998

Measured: GI50

NS(=O)(=O)c1ccc(NC(=O)c2cccc3cc4ccccc4nc23)cc1
inactive: T47D 96.6 µM | DMS-114 97.7 µM | CAKI-1 10.1 µM | ACHN 6.64 µM | NCI-H23 20.5 µM | SN12C 20.8 µM | SNB-19 28.3 µM | MOLT-4 2.7 µM | A498 > 43.7 µM | UACC-257 71.4 µM | UACC-62 66.5 µM | SNB-75 > 37.4 µM | OVCAR-3 46.6 µM | BT-549 42.4 µM | CCRF-CEM 7.71 µM | M14 > 72.1 µM | NCI/ADR-RES 11.8 µM | DU-145 > 100 µM | SW-620 6.04 µM | HCC 2998 > 100 µM

CC1=C2C(O)C(C(C)C(=O)NCC(C)C)CCC2(C)C=CC1=O (configuration not stated)
inactive: DMS-114 > 100 µM | CAKI-1 > 100 µM | NCI-H23 > 100 µM | SN12C > 100 µM | SNB-19 > 100 µM | MOLT-4 > 100 µM | A498 > 100 µM | UACC-257 > 100 µM | UACC-62 > 100 µM | SNB-75 > 100 µM | OVCAR-3 > 100 µM | CCRF-CEM > 100 µM | NCI/ADR-RES > 100 µM | SW-620 > 100 µM | HCC 2998 > 100 µM

CN(C)c1ccc(O[Si](Oc2ccc(N(C)C)cc2)(Oc2ccc(N(C)C)cc2)Oc2ccc(N(C)C)cc2)cc1
inactive: DMS-114 46.5 µM | CAKI-1 > 100 µM | ACHN > 100 µM | NCI-H23 99.5 µM | SN12C 96.8 µM | SNB-19 > 100 µM | MOLT-4 98.2 µM | A498 > 100 µM | UACC-257 85.1 µM | UACC-62 > 100 µM | SNB-75 > 100 µM | OVCAR-3 51.6 µM | CCRF-CEM 40.8 µM | M14 > 100 µM | SW-620 > 100 µM | HCC 2998 79.6 µM

O=C(/N=C(/Nc1ccccc1)SCS/C(=N\C(=O)c1ccco1)Nc1ccccc1)c1ccco1
inactive: DMS-114 52 µM | CAKI-1 29.4 µM | ACHN 38.8 µM | NCI-H23 24.4 µM | SN12C 84.1 µM | SNB-19 24 µM | MOLT-4 > 100 µM | A498 27.1 µM | UACC-257 > 100 µM | UACC-62 > 100 µM | SNB-75 16.9 µM | OVCAR-3 40.8 µM | CCRF-CEM > 100 µM | M14 > 100 µM | SW-620 > 100 µM | HCC 2998 53.7 µM
